Literature values in patent publication US11577212B2, “Stimuli-responsive micro-reservoirs for release of encapsulants” (priority 2018, dated 2023).

| solubility in water | SMILES |
| --- | --- |
| Miscible | CN(C)P(N(C)C)N(C)C [Hexamethylphosphorous triamide (HMPT), Hexamethylphosphorous triamide] |
| 0.0055 g/100 g | C1CCCCC1 [cyclohexane] |
| Miscible | COCCOCCOC [diethylene glycol dimethyl ether] |
| Miscible | CCO [ethanol] |
| 8.7 g/100 g | CCOC(C)=O [ethyl acetate] |
| Miscible | OCC(O)CO [glycerin] |
| 0.0014 g/100 g | CCCCCC [hexane] |

| SMILES | solubility in water |
| --- | --- |
| COCCOC [1,2-dimethoxy-ethane (glyme, DME), 1,2-dimethoxy-ethane] | Miscible |
| Clc1ccccc1 [chlorobenzene] | 0.05 g/100 g |
| CCCCC [pentane] | 0.04 g/100 g |
